The NIST ThermoML archive (doi:10.1021/je100362p)

Columns and labels:
[1] = refractive index (Na D-line) (dimensionless); xn = mol fraction of the nth substance listed; conditions: 101 kPa, Liquid, Standard Abbe refractometry
[2] = xn = mol fraction of the nth substance listed; conditions: 101 kPa, Liquid; for speed of sound: Sing-around technique in a fixed-path interferometer

COc1ccccc1 [anisole] + CCCCCCCCCCO
Conditions | mass density, 298.15 K [kg/m3] | mass density, 303.15 K [kg/m3] | mass density, 308.15 K [kg/m3] | refractive index, 298.15 K | refractive index, 303.15 K | refractive index, 308.15 K | speed of sound, 298.15 K [m/s] | speed of sound, 303.15 K [m/s] | speed of sound, 308.15 K [m/s]
[1], x1 = 0.0817 | – | – | – | 1.43761 | 1.4356 | 1.43301 | – | – | –
[1], x1 = 0.144 | – | – | – | 1.44029 | 1.43803 | 1.43539 | – | – | –
[1], x1 = 0.2047 | – | – | – | 1.44304 | 1.44069 | 1.43799 | – | – | –
[1], x1 = 0.273 | – | – | – | 1.44629 | 1.44389 | 1.44125 | – | – | –
[1], x1 = 0.3484 | – | – | – | 1.45029 | 1.44799 | 1.44522 | – | – | –
[1], x1 = 0.4099 | – | – | – | 1.45394 | 1.45164 | 1.44877 | – | – | –
[1], x1 = 0.4874 | – | – | – | 1.45908 | 1.45684 | 1.45398 | – | – | –
[1], x1 = 0.544 | – | – | – | 1.46319 | 1.46099 | 1.45815 | – | – | –
[1], x1 = 0.6071 | – | – | – | 1.46829 | 1.46616 | 1.46323 | – | – | –
[1], x1 = 0.6699 | – | – | – | 1.47385 | 1.47181 | 1.46884 | – | – | –
[1], x1 = 0.7359 | – | – | – | 1.48043 | 1.47853 | 1.47539 | – | – | –
[1], x1 = 0.8171 | – | – | – | 1.48959 | 1.48774 | 1.48475 | – | – | –
[1], x1 = 0.91 | – | – | – | 1.50162 | 1.49999 | 1.49685 | – | – | –
[1], x1 = 0.9464 | – | – | – | 1.50672 | 1.50539 | 1.50231 | – | – | –
[1], x1 = 1 | – | – | – | 1.51495 | 1.51395 | 1.51095 | – | – | –
[2], x1 = 0.0817 | 833.984 | 830.48 | 826.944 | – | – | – | 1377.1 | 1359.8 | 1342.7
[2], x1 = 0.144 | 840.044 | 836.478 | 832.875 | – | – | – | 1375.3 | 1357.9 | 1340.7
[2], x1 = 0.2047 | 846.31 | 842.682 | 839.02 | – | – | – | 1373.6 | 1356.1 | 1338.8
[2], x1 = 0.273 | 853.826 | 850.126 | 846.4 | – | – | – | 1371.9 | 1354.2 | 1336.8
[2], x1 = 0.3484 | 862.774 | 858.992 | 855.195 | – | – | – | 1370.2 | 1352.4 | 1334.8
[2], x1 = 0.4099 | 870.64 | 866.789 | 862.929 | – | – | – | 1369.4 | 1351.4 | 1333.6
[2], x1 = 0.4874 | 881.37 | 877.429 | 873.48 | – | – | – | 1368.8 | 1350.8 | 1332.8
[2], x1 = 0.544 | 889.862 | 885.853 | 881.832 | – | – | – | 1369.2 | 1350.9 | 1332.8
[2], x1 = 0.6071 | 900.075 | 895.987 | 891.877 | – | – | – | 1370.4 | 1351.9 | 1333.6
[2], x1 = 0.6699 | 911.097 | 906.926 | 902.722 | – | – | – | 1372.3 | 1353.6 | 1335
[2], x1 = 0.7359 | 923.763 | 919.5 | 915.191 | – | – | – | 1375.5 | 1356.5 | 1337.6
[2], x1 = 0.8171 | 941.067 | 936.682 | 932.241 | – | – | – | 1381.6 | 1362.2 | 1343
[2], x1 = 0.91 | 963.68 | 959.139 | 954.549 | – | – | – | 1392.6 | 1372.8 | 1352.9
[2], x1 = 0.9464 | 973.453 | 968.846 | 964.201 | – | – | – | 1398 | 1377.9 | 1357.9
[2], x1 = 1 | 989.145 | 984.433 | 979.712 | – | – | – | 1406.9 | 1386.8 | 1366.5
